Assay: Zeta potential of emulsion surface
Format: physicochemical
Details: 0.002% CKC in emulsion
Source text: Thus in preferred embodiments, micellar compositions of the present invention have a positive zeta potential. As known in the art, the zeta potential is a measure of the magnitude of repulsion or attraction between particles (Washington, Adv. Drug Deliv. Reviews, 1996, 20:131-145). The Zeta potential is not measurable directly but it can be calculated using theoretical models and an experimentally-determined electrophoretic mobility or dynamic electrophoretic mobility. As known in the art, electrophoretic mobility can be determined using micro-electrophoresis or electrophoretic light scattering.
All the eye drops were supplied by Novagali Pharma (Evry, France) and were sterile with physiological pH and osmolality. The present Applicants chose to compare 0.02% BAK to 0.002% CKC since these two QAC concentrations confer equivalent positive charge to the emulsion surface (zeta potential around 20 mV).

zeta potential: around 20 mV
Compound: CCCCCCCCCCCCCCCC[N+](C)(C)Cc1ccccc1 [Cetalkonium chloride, cetalkonium chloride]

From patent EP2077104A1, “Micellar compositions with ophtalmic applications” (Novagali Pharma S.A., priority 2008, dated 2009)
